Experimental data: the supplement of paper PMC10307832

Tests used:
Experiment in all cases: relative viability (nuclei count vs DMSO), 5 days (fraction); higher = more cells survive
Sunitinib = compound: CCN(CC)CCNC(=O)c1c(C)[nH]c(/C=C2\C(=O)Nc3ccc(F)cc32)c1C [Sunitinib]
Procedure, shortened: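 Following overnight incubation at 37 °C, lung cancer cell lines in 1536-well plates were pinned with five library-drug doses (not always all listed) in √10 steps on vehicle-anchored plates. The cells then spent 5 days without medium change before a combined fix, permeabilisation and Hoechst stain, 4× imaging and MetaXpress nuclear counts. Viability is the treated-to-vehicle ratio of nuclei, taken as the median across plates. Only plates with control CV below 25% and at least one doubling passed.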

Sunitinib + Trametinib = compound: CCN(CC)CCNC(=O)c1c(C)[nH]c(/C=C2\C(=O)Nc3ccc(F)cc32)c1C [Sunitinib] + CC(=O)Nc1cccc(-n2c(=O)n(C3CC3)c(=O)c3c(Nc4ccc(I)cc4F)n(C)c(=O)c(C)c32)c1 [Trametinib] (partner 0.02 µM)
Procedure, shortened: (§1)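 Lung cancer cell lines were pin-tool dosed in 1536-well plates on the day after seeding, with either a lone drug or a fixed anchor-drug dose plus five library-drug doses (not always all listed) in √10 steps. Nuclei were counted on 4× images after 5 days. Relative viability is the ratio of treated-well to vehicle-well nuclei counts, with each value a median of duplicate plates.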

Sunitinib + OSI-027 = compound: CCN(CC)CCNC(=O)c1c(C)[nH]c(/C=C2\C(=O)Nc3ccc(F)cc32)c1C [Sunitinib] + COc1cccc2cc(-c3nc([C@H]4CC[C@H](C(=O)O)CC4)n4ncnc(N)c34)[nH]c12 [OSI-027] (partner 0.5 µM)
Procedure, shortened: as §1

Sunitinib + Phenformin = compound: CCN(CC)CCNC(=O)c1c(C)[nH]c(/C=C2\C(=O)Nc3ccc(F)cc32)c1C [Sunitinib] + N=C(N)NC(=N)NCCc1ccccc1 [Phenformin] (partner 250 µM)
Procedure, shortened: as §1

| Cell Line | relative viability (Sunitinib; 0.02 µM) | relative viability (Sunitinib; 0.06325 µM) | relative viability (Sunitinib; 0.6325 µM) | relative viability (Sunitinib; 2 µM) | relative viability (Sunitinib + Trametinib; first compound 0.02 µM) | relative viability (Sunitinib + Trametinib; first compound 0.06325 µM) | relative viability (Sunitinib + Trametinib; first compound 0.2 µM) | relative viability (Sunitinib + Trametinib; first compound 0.6325 µM) | relative viability (Sunitinib + Trametinib; first compound 2 µM) | relative viability (Sunitinib + OSI-027; first compound 0.02 µM) | relative viability (Sunitinib + OSI-027; first compound 0.2 µM) | relative viability (Sunitinib + OSI-027; first compound 0.6325 µM) | relative viability (Sunitinib + OSI-027; first compound 2 µM) | relative viability (Sunitinib + Phenformin; first compound 0.02 µM) | relative viability (Sunitinib + Phenformin; first compound 0.06325 µM) | relative viability (Sunitinib + Phenformin; first compound 0.2 µM) | relative viability (Sunitinib + Phenformin; first compound 0.6325 µM) | relative viability (Sunitinib + Phenformin; first compound 2 µM) | relative viability (Sunitinib; 0.2 µM) | relative viability (Sunitinib + OSI-027; first compound 0.06325 µM) |
| --- | --- | --- | --- | --- | --- | --- | --- | --- | --- | --- | --- | --- | --- | --- | --- | --- | --- | --- | --- | --- |
| HCC-15 | 0.988 | 1.11 | 1.04 | 1 | 0.36 | 0.316 | 0.305 | 0.352 | 0.312 | 0.608 | 0.852 | 0.714 | 0.641 | 0.424 | 0.523 | 0.588 | 0.49 | 0.404 | – | – |
| HCC-44 | – | 1.04 | 1.01 | 1.04 | 1.06 | 1.14 | 1.1 | 1.08 | – | 0.558 | 0.676 | 0.64 | 0.665 | 0.29 | 0.238 | 0.274 | 0.145 | 0.142 | 1.04 | 0.459 |
| HCC-78 | 0.984 | 0.947 | 0.899 | 1 | 0.76 | 0.812 | 0.985 | 0.737 | 0.701 | 0.352 | 0.377 | 0.379 | 0.411 | 0.639 | 0.726 | 0.71 | 0.677 | 0.806 | 0.994 | 0.397 |
| HCC-366 | 0.963 | 1.05 | – | 0.965 | 0.313 | 0.407 | 0.382 | 0.389 | 0.339 | 0.895 | 1.1 | 0.904 | 0.636 | 0.559 | 0.624 | 0.644 | 0.599 | 0.544 | 1.07 | 0.862 |
| HCC-827 | 1.01 | 1.06 | 1.05 | 1.04 | 0.555 | 0.61 | 0.558 | 0.613 | 0.618 | 0.743 | – | 0.76 | 0.826 | 0.366 | 0.401 | 0.439 | 0.403 | 0.291 | 1.05 | 0.709 |
| HOP-62 | 0.95 | 1.07 | 1.1 | 1.06 | 0.376 | 0.364 | 0.389 | 0.374 | 0.379 | 0.763 | – | 0.977 | 0.995 | 0.614 | 0.713 | 0.745 | 0.661 | 0.698 | 1.13 | 1.01 |
| IA-LM | 0.951 | 0.953 | 1.1 | 1.07 | – | – | – | – | – | – | – | – | – | – | – | – | – | – | 1.05 | – |
| LC-2-ad | 0.945 | 1.01 | 1 | 0.781 | 0.894 | 0.951 | 0.896 | 0.825 | 0.722 | – | 0.944 | 0.818 | 0.614 | 0.526 | 0.574 | 0.643 | 0.61 | 0.573 | 1.09 | 0.844 |
| LCLC-97TM1 | 0.968 | 1.14 | 1.02 | 1.09 | 0.197 | 0.215 | 0.206 | 0.207 | 0.205 | 0.553 | 0.598 | 0.48 | 0.473 | 0.463 | 0.438 | 0.442 | 0.406 | 0.426 | 1.01 | 0.59 |
| LCLC-103H | 0.905 | 1.07 | 0.903 | 1.03 | 0.612 | 0.692 | 0.629 | 0.728 | 0.719 | 0.373 | 0.467 | 0.397 | 0.456 | 0.354 | 0.343 | 0.352 | 0.365 | 0.33 | 1.12 | 0.477 |
| LK-2 | 0.936 | 1.02 | 0.905 | 1.01 | 0.498 | 0.809 | 0.858 | 0.747 | 0.964 | 0.175 | 0.189 | 0.2 | 0.194 | 0.224 | 0.427 | 0.406 | 0.494 | 0.249 | 1.22 | 0.257 |
| LOU-NH91 | 1.01 | 0.969 | 0.98 | 0.941 | 0.791 | 0.811 | 0.844 | 0.823 | 0.787 | 0.778 | 0.772 | 0.73 | 0.742 | 0.734 | 0.699 | 0.765 | 0.825 | 0.764 | 1 | 0.74 |
| LU99A | 0.84 | 1.1 | 0.938 | 0.901 | 0.477 | 0.562 | 0.554 | 0.552 | 0.424 | 0.289 | 0.287 | 0.329 | 0.317 | 0.727 | 0.906 | 1 | 0.803 | 0.782 | 1.04 | 0.297 |
| NCI-H1299 | 0.99 | 1.07 | 1.04 | 1.08 | – | – | – | – | – | – | – | – | – | – | – | – | – | – | 1.04 | – |
| NCI-H1563 | 0.955 | 1.04 | 0.939 | 0.967 | – | – | – | – | – | 0.694 | 0.766 | 0.762 | 0.75 | 0.661 | 0.707 | 0.738 | – | 0.706 | 0.969 | 0.79 |
| NCI-H1648 | 0.767 | – | 1.13 | 1.17 | 0.502 | 0.529 | 0.524 | 0.445 | 0.499 | – | 0.266 | 0.231 | 0.294 | – | – | – | – | – | 1.15 | 0.24 |
| NCI-H1703 | 0.616 | 0.257 | 0.216 | 0.242 | – | – | – | – | – | – | – | – | – | – | – | – | – | – | 0.315 | – |
